Assay results as given in the supplement of paper PMC10307832.

Assays:
Experiment in all cases: relative viability (nuclei count vs DMSO), 5 days (fraction); higher = more cells survive
RO-3306 + Vorinostat = compound: C1=CC2=C(C=CC(=C2)C=C3C(=O)NC(=NCC4=CC=CS4)S3)N=C1 [RO-3306] + O=C(CCCCCCC(=O)Nc1ccccc1)NO [Vorinostat] (partner 1 µM)
Procedure, shortened: (§1)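 Nuclei were stained with Hoechst during a one-step fixation (final 0.05% Triton X-100, 1% formaldehyde, 1 ug/ml Hoechst) carried out 5 days after dosing, then counted on 4× images. The cells, lung cancer lines in 1536-well plates, had been dosed by pin tool the day after seeding with one drug alone or a fixed anchor-drug dose plus five library-drug doses (not always all listed) in √10 steps. Relative viability is the nuclei count in treated wells divided by that in vehicle wells, and each value is the median of duplicate plates.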

RO-3306 + Trametinib = compound: C1=CC2=C(C=CC(=C2)C=C3C(=O)NC(=NCC4=CC=CS4)S3)N=C1 [RO-3306] + CC(=O)Nc1cccc(-n2c(=O)n(C3CC3)c(=O)c3c(Nc4ccc(I)cc4F)n(C)c(=O)c(C)c32)c1 [Trametinib] (partner 0.02 µM)
Procedure, shortened: as §1

[1] = compound: O=S(=O)(c1ccccc1)N(CC(F)(F)F)c1ccc(C(O)(C(F)(F)F)C(F)(F)F)cc1 + CS(=O)(=O)N1CCN(Cc2cc3nc(-c4cccc5[nH]ncc45)nc(N4CCOCC4)c3s2)CC1 [Pictilisib] (partner 1 µM)
Procedure, shortened: as §1

[2] = compound: O=S(=O)(c1ccccc1)N(CC(F)(F)F)c1ccc(C(O)(C(F)(F)F)C(F)(F)F)cc1 + Cc1nc(Nc2ncc(C(=O)Nc3c(C)cccc3Cl)s2)cc(N2CCN(CCO)CC2)n1 [Dasatinib] (partner 0.075 µM)
Procedure, shortened: as §1

[3] = compound: O=S(=O)(c1ccccc1)N(CC(F)(F)F)c1ccc(C(O)(C(F)(F)F)C(F)(F)F)cc1 + CC(=O)Nc1cccc(-n2c(=O)n(C3CC3)c(=O)c3c(Nc4ccc(I)cc4F)n(C)c(=O)c(C)c32)c1 [Trametinib] (partner 0.02 µM)
Procedure, shortened: as §1

UMC-11 was tested, and the relative viability (RO-3306 + Vorinostat; first compound 0.01 µM) was 0.386, the relative viability (RO-3306 + Vorinostat; first compound 0.03162 µM) was 0.376 and the relative viability (RO-3306 + Vorinostat; first compound 0.1 µM) was 0.384. The relative viability (RO-3306 + Vorinostat; first compound 0.3162 µM) was 0.339, the relative viability (RO-3306 + Vorinostat; first compound 1 µM) was 0.322 and the relative viability (RO-3306 + Trametinib; first compound 0.01 µM) was 0.734. The relative viability (RO-3306 + Trametinib; first compound 0.03162 µM) was 0.679, the relative viability (RO-3306 + Trametinib; first compound 0.1 µM) was 0.641 and the relative viability (RO-3306 + Trametinib; first compound 0.3162 µM) was 0.793. The relative viability (RO-3306 + Trametinib; first compound 1 µM) was 0.531, the relative viability ([1]; first compound 0.8 µM) was 0.908 and the relative viability ([1]; first compound 2.53 µM) was 0.867. The relative viability ([1]; first compound 8 µM) was 1.14, the relative viability ([2]; first compound 0.8 µM) was 0.561 and the relative viability ([2]; first compound 2.53 µM) was 0.531. It also gave a relative viability ([2]; first compound 8 µM) of 0.54, a relative viability ([3]; first compound 0.8 µM) of 0.796 and a relative viability ([3]; first compound 2.53 µM) of 0.711. It also gave a relative viability ([3]; first compound 8 µM) of 0.862.
